# Values quoted from earlier work, collected in paper PMC5413030, “Radiochemistry on electrodes: Synthesis of an ^18F-labelled and in vivo stable COX-2 inhibitor” (PLoS ONE, 2017).
# Experiments:
# [1] = oxidation of the methyl group
structure (smiles),measurement,setting,value
"Cc1ccc(-c2cc(C(F)(F)F)nn2-c2ccc(S(N)(=O)=O)cc2)cc1 [Celecoxib, 4-[5-(4-Methylphenyl)-3-(trifluoromethyl)-1H-pyrazol-1-yl]benzenesulfonamide]",protein binding in plasma,,> 95%
same,metabolic behavior of celecoxib,[1],almost completely metabolized
